# Source: ChEMBL document CHEMBL5316298, “Discovery of Amphiphilic Xanthohumol Derivatives as Membrane-Targeting Antimicrobials against Methicillin-Resistant Staphylococcus aureus” (J Med Chem, 2023)
# Columns and labels:
# [1] = test system: Staphylococcus aureus; experiment: Antibacterial activity against methicillin-resistant Staphylococcus aureus clinical isolate 7 incubated for 16 to 18 hrs by CLSI-based microbroth dilution method; format: functional; settings: time 16-18 hrs
# [2] = test system: Staphylococcus aureus; experiment: Antibacterial activity against methicillin-resistant Staphylococcus aureus clinical isolate 6 incubated for 16 to 18 hrs by CLSI-based microbroth dilution method; format: functional; settings: time 16-18 hrs
# [3] = test system: Staphylococcus aureus; experiment: Antibacterial activity against methicillin-resistant Staphylococcus aureus clinical isolate 8 incubated for 16 to 18 hrs by CLSI-based microbroth dilution method; format: functional; settings: time 16-18 hrs
# [4] = test system: Staphylococcus aureus; experiment: Antibacterial activity against Staphylococcus aureus ATCC 29213 incubated for 16 to 18 hrs by CLSI-based microbroth dilution method; format: functional; settings: time 16-18 hrs
# [5] = Hemolytic activity in sheep erythrocytes incubated for 1 hr by absorbance based analysis; format: toxicity, cell-based, Ovis aries, Erythrocyte
# [6] = test system: Staphylococcus aureus; experiment: Antibacterial activity against methicillin-resistant Staphylococcus aureus clinical isolate 4 incubated for 16 to 18 hrs by CLSI-based microbroth dilution method; format: functional; settings: time 16-18 hrs
# [7] = test system: Staphylococcus aureus; experiment: Antibacterial activity against methicillin-resistant Staphylococcus aureus clinical isolate 10 incubated for 16 to 18 hrs by CLSI-based microbroth dilution method; format: functional; settings: time 16-18 hrs
# [8] = test system: Staphylococcus aureus; experiment: Antibacterial activity against methicillin-resistant Staphylococcus aureus clinical isolate 2 incubated for 16 to 18 hrs by CLSI-based microbroth dilution method; format: functional; settings: time 16-18 hrs
# [9] = test system: Staphylococcus aureus; experiment: Antibacterial activity against methicillin-resistant Staphylococcus aureus clinical isolate 5 incubated for 16 to 18 hrs by CLSI-based microbroth dilution method; format: functional; settings: time 16-18 hrs
# [10] = test system: Staphylococcus aureus; experiment: Antibacterial activity against methicillin-resistant Staphylococcus aureus clinical isolate 1 incubated for 16 to 18 hrs by CLSI-based microbroth dilution method; format: functional; settings: time 16-18 hrs
# [11] = test system: Staphylococcus aureus; experiment: Antibacterial activity against methicillin-resistant Staphylococcus aureus clinical isolate 9 incubated for 16 to 18 hrs by CLSI-based microbroth dilution method; format: functional; settings: time 16-18 hrs
# [12] = test system: Staphylococcus aureus; experiment: Antibacterial activity against methicillin-resistant Staphylococcus aureus clinical isolate 3 incubated for 16 to 18 hrs by CLSI-based microbroth dilution method; format: functional; settings: time 16-18 hrs
Compound,MIC [1] [µg/mL],MIC [2] [µg/mL],MIC [3] [µg/mL],MIC [4] [µg/mL],HC50 at 1 h [5] [µg/mL],MIC [6] [µg/mL],MIC [7] [µg/mL],MIC [8] [µg/mL],MIC [9] [µg/mL],MIC [10] [µg/mL],MIC [11] [µg/mL],MIC [12] [µg/mL]
CCCCCCNC(=O)C[N+](C)(C)CCCCCOc1ccc(/C=C/C(=O)c2c(OC)cc3c(c2O)C=CC(C)(C)O3)cc1.[Br-],4,2,4,4,245,2,2,2,2,2,4,2
CCCCNC(=O)C[N+](C)(C)CCCCOc1ccc(/C=C/C(=O)c2c(OC)cc3c(c2O)C=CC(C)(C)O3)cc1.[Br-],2,2,4,4,220,2,4,2,2,2,2,2
COc1cc2c(c(O)c1C(=O)/C=C/c1ccc(OCCCCC[N+](C)(C)CC(=O)N3CCSCC3)cc1)C=CC(C)(C)O2.[Br-],4,2,4,4,210,4,1,4,4,8,1,4
CCCCCNC(=O)C[N+](C)(C)CCCCOc1ccc(/C=C/C(=O)c2c(OC)cc3c(c2O)C=CC(C)(C)O3)cc1.[Br-],4,2,4,4,83.4,8,4,4,4,4,4,4
CCCCCNC(=O)C[N+](C)(C)CCCOc1ccc(/C=C/C(=O)c2c(OC)cc3c(c2O)C=CC(C)(C)O3)cc1.[Br-],4,4,4,2,169,4,4,4,2,2,4,2
CCCN(CCC)C(=O)C[N+](C)(C)CCCCCOc1ccc(/C=C/C(=O)c2c(OC)cc3c(c2O)C=CC(C)(C)O3)cc1.[Br-],2,1,2,2,436,2,2,4,2,4,1,2
COc1cc2c(c(O)c1C(=O)/C=C/c1ccc(OCCCC[N+](C)(C)CC(=O)N(C(C)C)C(C)C)cc1)C=CC(C)(C)O2.[Br-],2,1,2,2,657,2,2,2,2,8,2,2
CCCNC(=O)C[N+](C)(C)CCCCCOc1ccc(/C=C/C(=O)c2c(OC)cc3c(c2O)C=CC(C)(C)O3)cc1.[Br-],2,1,2,4,974,2,2,8,1,2,8,2
CCCCN(CCCC)C(=O)C[N+](C)(C)CCCCOc1ccc(/C=C/C(=O)c2c(OC)cc3c(c2O)C=CC(C)(C)O3)cc1.[Br-],4,1,4,2,466,2,2,2,2,1,1,1
CCCCNC(=O)C[N+](C)(C)CCCCCOc1ccc(/C=C/C(=O)c2c(OC)cc3c(c2O)C=CC(C)(C)O3)cc1.[Br-],2,1,2,2,826,2,2,2,1,2,4,2
COc1cc2c(c(O)c1C(=O)/C=C/c1ccc(OCCCCC[N+](C)(C)CC(=O)N(CC(C)C)CC(C)C)cc1)C=CC(C)(C)O2.[Br-],2,1,2,2,374,2,2,1,2,4,2,2
